Data taken from patent publication EP0377457A1, “Thiazole compounds, processes for the preparation thereof, and pharmaceutical composition comprising the same” (FUJISAWA PHARMACEUTICAL CO., LTD., priority 1989, dated 1990).
Counter-ions that a name gives are not always drawn. Like-named read-outs stand apart in the source and are kept apart here. Each block holds one compound with its values, some of them ahead of it.

Key:
[1] = tested on: human washed platelets; test: Thrombin induced aggregation in human washed platelets; type: cell-based; settings: Platelet, concentration 1.0 x 10^-5 M, thrombin final conc. 0.3-0.5 U/ml
Experimental: Blood was drawn from healthy volunteers into a plastic tube containing 1/10 volume of 3.8% sodium citrate and centrifuged at 120 g for 10 min to obtain platelet rich plasma (PRP). An equal volume of 25 mM Tris-HCI buffer (pH 7.4) containing 130 mM NaCl and 1.5 mM EDTA (buffer A) was added to the PRP, mixed and centrifuged at 1500 g for 10 min. The platelet pellet was suspended in buffer A and centrifuged at 1500 g for 5 min. The platelets were resuspended in 25 mM Tris-HCI buffer (pH 7.4) containing 130 mM NaCl and 0.3 mM EDTA and recentrifuged at 1500 g for 5 min. The platelets were finally suspended in Tyrode solution containing 0.3 % bovine serum albumin and the platelet count was adjusted to 3 x 10^8/ml. To 247.5 µl of platelet suspension, 2.5 µl of drug solution was added and incubated for 2 min at 37° C prior to addition of thrombin solution (final conc. 0.3-0.5 U/ml). Platelet aggregation was turbidometrically measured using a HEMATRACER 1.

[2] = tested on: platelet aggregation; test: Platelet aggregation in vitro (collagen-induced, guinea-pig PRP); type: cell-based; settings: Cavia porcellus, collagen (0.5 µg/ml) as inducer
Experimental: (§1) Platelet rich plasma (PRP) which contains 6 - 7 x 10^8 platelets/ml and 3 x 10^8 platelets/ml was prepared from guinea-pig and human blood, respectively. To the each 245 µℓ of PRP, 5 µℓ of drug solution^* was added, and then stirred for 2 min at 37° C. To the solution, […] of collagen (0.5 µg/mℓ) was added as an aggregation inducer. Aggregation was measured by using an aggregometer (NKK HEMA-TRACER 1). Activities of inhibitors (test compounds) were expressed as IC50 values i.e. doses required to inhibit the platelet aggregation responses by 50%.
(§2) Drug solution^* --- Test compounds were dissolved in a mixture of ethanol, polyethylene glycol and saline (1:1:2, V/V/V) and dimethylsulfoxide for guinea-pig and human blood, respectively.

[3] = tested on: platelet aggregation; test: Platelet aggregation in vitro (collagen-induced, human PRP); type: cell-based; settings: collagen (0.5 µg/ml) as inducer
Experimental: as §1, §2

[4] = tested on: isolated rat aorta; test: Relaxation effect on isolated rat aorta
Experimental: Contraction was induced by addition of KCt solution (final concentration was 30 mM).

[5] = tested on: rats; test: Acute toxicity; type: in vivo; settings: peroral administration, 100 mg/kg
[6] = tested on: platelet aggregation; test: Platelet aggregation ex vivo (arachidonic acid-induced, PRP after oral administration); type: in vivo, guinea-pigs; settings: Cavia porcellus, 6 h, dose 1.0 mg/kg oral, blood collected six hours after administration, arachidonic acid final 50 µM as inducer
Experimental: Male Hartley guinea-pigs weighing about 300 g were used after 24 hours fasting. Six hours after oral administration of the test compound or vehicle of test compound (control), blood was collected into a tube containing 0.1 vol. of 3.8% sodium citrate and prepared platelet rich plasma (PRP).
To the 250 µl of PRP, 5 µl of arachidonic acid (final 50 µM) was added as an aggregation inducer. Aggregation was measured by using an aggregometer (NKK HEMA-TRACER 1).

[7] = tested on: Paw edema; test: Antiinflammatory activity (carrageenin paw edema); type: in vivo, Sprague-Dawly rats; settings: 100 mg/kg orally 60 minutes before carrageenin; edema volume at 3 hours
Experimental: Five male Sprague-Dawly rats weighing 160-180 g were used per group. Paw edema was induced by subplantar injection of 1 % carrageenin (0.1 ml/rat) into the right hind paw. The test drug was suspended in 0.5% methylcellulose and administered orally 60 minutes before phlogogen. Paw volume was measured with plethysmometer (Ugo Bazil Co., Ltd.) by water displacement immersing the paw to the lateral malleolus. The difference of paw volume before and 3 hours after the phlogogen was designated as edema volume. The data were analyzed statistically by student's t-test.

[8] = molecular target: T1, cyclooxygenase (Ovis aries, UniProt P05979); test: Assay for cyclooxygenase inhibition; type: biochemical, sheep
T1 construct: 240 µg of the microsomal enzyme; tissue Ran Biochem (Israel); host or cells: sheep seminal vesicles, microsomal fraction
T1 sequence (P05979 25-600): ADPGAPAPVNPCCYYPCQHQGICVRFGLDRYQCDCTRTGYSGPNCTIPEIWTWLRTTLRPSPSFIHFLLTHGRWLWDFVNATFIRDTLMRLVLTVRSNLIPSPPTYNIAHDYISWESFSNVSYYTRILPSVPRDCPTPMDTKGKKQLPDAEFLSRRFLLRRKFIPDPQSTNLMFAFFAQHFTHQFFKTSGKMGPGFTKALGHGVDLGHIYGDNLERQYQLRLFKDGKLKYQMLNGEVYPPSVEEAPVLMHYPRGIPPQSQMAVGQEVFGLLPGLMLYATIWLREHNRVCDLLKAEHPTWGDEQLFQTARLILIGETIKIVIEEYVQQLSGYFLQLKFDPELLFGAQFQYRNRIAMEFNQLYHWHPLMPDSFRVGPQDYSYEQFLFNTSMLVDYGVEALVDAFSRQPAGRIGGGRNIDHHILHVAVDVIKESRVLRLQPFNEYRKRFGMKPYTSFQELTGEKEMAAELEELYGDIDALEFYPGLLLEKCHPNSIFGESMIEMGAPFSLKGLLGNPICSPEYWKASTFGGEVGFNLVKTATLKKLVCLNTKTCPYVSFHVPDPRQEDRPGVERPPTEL
Experimental: The microsomal fraction from sheep seminals vesicles was purchased from Ran Biochem (Israel). The reaction mixture consisted of 0.1 M Tris-HCI, pH 7.6, 1 mM epinephrine, 2 mM glutathione, 240 µg of the microsomal enzyme, in a total volume of 200 µl. The reaction was started by the addition of 10 µM (^14C) arachidonic acid (120 nM), and incubated at 37° C for 5 min. The reaction was stopped by the addition of 50 µl of 1 N HCI. The synthesized prostaglandins were extracted with 1.5 ml of ethylacetate. The ethyl acetate layer was dried with nitrogen gas, and dissolved in 100 µl of methanol. Ten microliters of the methanol solution were applied to a thin-layer plate (Merck, Kiesegel 60F), and developed with ethylacetate : acetate (100:2). The PGE2 fraction was scraped out, and the radioactivity was counted with 10 ml of toluene scintilator.
The activity of the test compound was expressed as IC50 value i.e. doses required to inhibit the activity of cyclooxygenase by 50%.

[9] = Half-life period; settings: rat, in vivo; rats, intravenous administration (0.32 mg/kg), (,B-phase)
[10] = tested on: SRS-A synthesis or release from peritoneal exudate cells; test: Anti-SRS-A activity; type: cell-based, SD rats; settings: rat peritoneal exudate cells; Ca++-ionophore 1 µg/ml; SRS-A read on isolated guinea pig ileum; read-out: Inhibitory Concentration IC50
Experimental: Peritoneal exudate cells were collected from glycogen-injected SD rats and adjusted to 1 x 10^7 cells/ml with Tyrode's solution. One milliliter of the cell suspension was incubated with indomethacin (10 µg/ml) and each varied concentration of the test compound for 10 minutes and, then, further incubated with Ca^++ - ionophore (A123187, 1 µg/ml) for 10 minutes. The supernatant was collected by centrifugation and the SRS-A (slow-reacting substance of anaphylaxis) activity was determined in terms of contractility of the isolated guinea pig ileum in the presence of mepyramine, atropine and methysergide.
The results were expressed in terms of the 50% inhibitory concentration to SRS-A synthesis or release from peritoneal exudate cells.

[11] = tested on: stomachs of the rats; test: Effect on stomach of rats; type: in vivo; settings: 100 mg/kg orally, rats treated as in the antiinflammatory test
[12] = contraction induced by KCl 30 mM, maximum relaxation by papaverine, read-out: ED50 (the source's name)

Compound: COc1ccc(-c2nc(CNC(=N)N)sc2-c2ccc(OC)cc2)cc1 [Example 12, 4,5-bis(4-methoxyphenyl)-2-guanidinomethylthiazole hydrochloride]
- inhibition at 10 µM [1]: 100%

Compound: COc1ccc(-c2nc(NC(=N)N(C)C)sc2-c2ccc(OC)cc2)cc1 [Example 14, 4,5-bis(4-methoxyphenyl)-2-(3,3-dimethylguanidino)thiazole hydrochloride]
- IC50 [2]: 0.042 µM
- IC50 [3]: 0.56 µM
- EC50 [4, 12]: 4.8e-06 M

- EC50 [4, 12]: 3e-06 M
Compound: COc1ccc(-c2nc(C(=O)N(C)C)sc2-c2ccc(OC)cc2)cc1 [Example 3, 4,5-bis(4-methoxyphenyl)-2-(N,N-dimethylcarbamoyl) thiazole]

Compound: COc1ccc(-c2nc(C(=O)N3CCN(C)CC3)sc2-c2ccc(OC)cc2)cc1.Cl [Example 1, 4,5-bis(4-methoxyphenyl)-2-(4-methylpiperazin-1-yl)carbonylthiazole hydrochloride]
- acute toxicity (dead) [5]: the dead at dose of 100 mg/kg could not be observed
- inhibition at 1 mg/kg [6]: 100%
- Inhibition (%) (Dose : 100 mg/kg) [7]: 36.2%
- EC50 ([4]; read-out: ED50 (M)): 6.2e-06 M
- IC50 [8]: 0.43 µM
- half-life [9]: 4.51 h
- IC50 [10]: 6.28 mg/L
- lesion in the stomachs [11]: No lesion was observed

- EC50 [4, 12]: 2.4e-06 M
Compound: CN=C(NC)Nc1nc(-c2ccc(OC)cc2)c(-c2ccc(OC)cc2)s1 [Example 21, 4,5-Bis(4-methoxyphenyl)-2-(2,3-dimethylguanidino)thiazole methanesulfonate]
